Patent US20260240959A1, “METHODS FOR IN VIVO EDITING OF KLKB1” (INTELLIA THERAPEUTICS, INC., priority 2022, published 2026)

Columns and labels:
[1] = cited from earlier work
[2] = Half-lives of HAE prophylactic products (from product sources); conditions: for half-life: human
[3] = Plasma pharmacokinetics of LP01 (LC-MS/MS) in HAE patients; format: in vivo, human
Experimental: Blood samples were collected to assess plasma concentration time profiles pre-infusion, during the infusion period, and at the end of the infusion period. Post infusion samples were collected at predefined time points as indicated in the graph (FIG. 37). LP01 (Lipid A) was quantified using liquid chromatography with tandem mass spectrometry (LC-MS/MS) methods. Plasma samples were evaluated using validated methods following regulatory guidelines.

| Compound | Half Life (t1/2) [1] [h] | half-life [2] [h] | Estimated washout for (5 half-lives) [2] | half-life ([3]; human, single dose IV infusion of NTLA-2002 25, 50 or 75 mg, range of cohort means, read-out: mean t1/2) [h] | decline below limit of quantification by ([3]; single dose IV infusion of NTLA-2002) [days] |
| --- | --- | --- | --- | --- | --- |
| C#C[C@]1(O)CC[C@H]2[C@@H]3CCC4=Cc5oncc5C[C@]4(C)[C@H]3CC[C@@]21C [Danocrine, Danazol, reference compound] | 9.7 | 48.5 |  |  |  |
| N#Cc1cccc([C@@H](NCC2CC2)c2ccc(F)c(NC(=O)c3cc(C(F)(F)F)nn3-c3cccc(CN)c3)c2)c1 [Orladeyo, Berotralstat, reference compound] | 93 | 465 |  |  |  |
| Cinryze: C1 Esterase Inhibitor [Human], HAE prophylactic product | 56 to 62 |  | 310 hours = ~13 days |  |  |
| CCCCC/C=C\C/C=C\CCCCCCCC(=O)OCC(COC(=O)CCC(OCCCCCCCC)OCCCCCCCC)COC(=O)OCCCN(CC)CC (centres unmarked) [LP01, (9Z,12Z)-3-((4,4-bis(octyloxy)butanoyl)oxy)-2-((((3-(diethylamino)propoxy)carbonyl)oxy)methyl)propyl octadeca-9,12-dienoate] |  |  |  | 16.8 to 21.3 | ≤ 15 |
| Haegarda: C1 Esterase Inhibitor [Human], HAE prophylactic product | 69 |  | 345 hours = ~14.5 days |  |  |
| C[C@]12COC(=O)C[C@@H]1CC[C@@H]1[C@@H]2CC[C@@]2(C)[C@H]1CC[C@]2(C)O [Oxandrin, Oxandrolone] |  | 66.5 |  |  |  |
